Here are results for one substance from US20100152154A1, “NOVEL PLATINUM COMPOUNDS FOR TREATING CANCER” (priority 2008, published 2010).

Holding throughout (format): cell-based, human
The subject of one test is SK-OV-3 cells. Kind of test: In vitro IC50 by MTS assay, SK-OV-3 ovarian cancer cells. The note with it: SK-OV-3, 48 hr incubation, MTS assay (490 nm). The method, then:
(§1) To Determine the In Vitro IC50 Values on Ten Human Cancer Cell Lines
(§2) HepG2 and PLC/PRF/5 cells are cultured in DMEM medium. Hep3B cells are cultured in MEM medium. NCI-H460 and 786-0 cells are cultured in RPMI 1640 medium. Caki-1, HCT-116, and SK-OV-3 cells are cultured in McCoy's 5A medium. MDA-MB-231 cells are cultured in L15 medium. All cells are cultured in corresponding media supplemented with 10% FBS, at 37° C., 5% CO2, and 95% humidity. All media are purchased from GIBCO.
(§3) CellTiter 96® Aqueous MTS reagent powder (Cat. No. G1112, Promega) Phenazine methosulfate (PMS) (Cat. No. P9625, Sigma)
(§4) Cells are harvested during the logarithmic growth period and counted with hemocytometer. Add 90 μl cell suspensions to 96-well plates (triplicates for each cell concentration), the final cell densities are 2×10^4, 1×10^4, or 5×10^3 cells/well. Prepare a series of drug concentrations for each of JP0916 and cisplatin and dispense 10 μl drug solution in each well (triplicate for each drug concentration). Incubate the plate for 48 hr then measure by MTS assay (490 nm).

A further test relates to HCT-116 cells. Kind of test: In vitro IC50 by MTS assay, HCT-116 colon cancer cells. The conditions noted are these: HCT-116, 48 hr incubation, MTS assay (490 nm). How it is done:
as §1, §2, §3, §4
Background: Tetrazolium dyes change colour on reduction, which living cells bring about.

The test system of another test is 786-0 cells. Kind of test: In vitro IC50 by MTS assay, 786-0 kidney cancer cells. The conditions noted are these: 786-0, 48 hr incubation, MTS assay (490 nm). How it is done: as §1, §2, §3, §4
Another test relates to Hep3B cells. Kind of test: In vitro IC50 by MTS assay, Hep3B liver cancer cells. The note with it: 48 hr incubation, MTS assay (490 nm). How it is done: as §1, §2, §3, §4
The next test relates to Caki-1 cells. The experiment in a line: In vitro IC50 by MTS assay, Caki-1 kidney cancer cells. The conditions noted are these: Caki-1, 48 hr incubation, MTS assay (490 nm). The method, then: as §1, §2, §3, §4
The subject of another test is PC/PRF/5 cells. Kind of test: In vitro IC50 by MTS assay, PC/PRF/5 liver cancer cells. The note with it: PC/PRF/5, 48 hr incubation, MTS assay (490 nm). The method, then: as §1, §2, §3, §4
The subject of a further test is NCI-H460 cells. Kind of test: In vitro IC50 by MTS assay, NCI-H460 NSCLC cells. The note with it: NCI-H460, 48 hr incubation, MTS assay (490 nm). The method, then: as §1, §2, §3, §4
Another test concerns MDA-MB-231 cells. Kind of test: In vitro IC50 by MTS assay, MDA-MB-231 breast cancer cells. The note with it: MDA-MB-231, 48 hr incubation, MTS assay (490 nm). The method, then:
as §1, §2, §3, §4

In the next test the test system is HepG2 cells. Kind of test: In vitro IC50 by MTS assay, HepG2 liver cancer cells. The note with it: HepG2, 48 hr incubation, MTS assay (490 nm). How it is done: as §1, §2, §3, §4

Usually IC50 stands for the concentration that inhibits the measured activity by half. Take “cis-diamminedichloroplatinum(II) [Cisplatin]”: the concentration for half-maximal inhibition (IC50) in the test with SK-OV-3 cells was determined as 21.6 µM; with HCT-116 cells it was 10.6 µM; with 786-0 cells, 3.54 µM; in the test with Hep3B cells it was 3.08 µM; in the test on Caki-1 cells it was 10.5 µM; in the test on PC/PRF/5 cells, 21.8 µM. For the same substance, the results for the IC50 in the test with NCI-H460 cells, with MDA-MB-231 cells and with HepG2 cells were 8.56 µM, 53.2 µM and 25.6 µM, respectively.
